Assay [1] deals with T1, Gastrin/cholecystokinin type B receptor (Mus musculus, UniProt P56481).
T1 sequence (P56481 whole entry): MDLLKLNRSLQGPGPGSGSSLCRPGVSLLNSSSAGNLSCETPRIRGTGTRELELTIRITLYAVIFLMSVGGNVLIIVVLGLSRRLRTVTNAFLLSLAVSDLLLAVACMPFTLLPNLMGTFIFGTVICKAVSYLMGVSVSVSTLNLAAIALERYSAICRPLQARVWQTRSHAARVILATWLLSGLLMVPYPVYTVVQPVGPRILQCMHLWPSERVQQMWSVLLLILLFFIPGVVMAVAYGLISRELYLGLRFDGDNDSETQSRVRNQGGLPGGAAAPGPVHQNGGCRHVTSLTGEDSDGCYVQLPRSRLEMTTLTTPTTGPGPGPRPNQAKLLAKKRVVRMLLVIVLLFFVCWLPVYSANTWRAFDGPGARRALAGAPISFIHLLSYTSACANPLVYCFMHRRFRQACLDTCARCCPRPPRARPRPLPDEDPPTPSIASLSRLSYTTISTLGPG
Briefly: Binding affinity towards CCK-B receptor in mouse cerebral cortex using [125I]Bolton-Hunter CCK-8 as radioligand; Value ranges from 9.8-25 uM. The assay is classed as tissue-based.

Assay [2] concerns the target T2, Substance-P receptor (Cavia porcellus, UniProt P30547). Briefly: Binding affinity towards NK-1 receptor in guinea pig cerebral cortex using [125I]Bolton-Hunter substance P as radioligand; Inactive (>>10 uM). The assay is classed as tissue-based.
Assay [3] addresses T3, Neuromedin-K receptor (Cavia porcellus, UniProt P30098).
T3 sequence (P30098 whole entry): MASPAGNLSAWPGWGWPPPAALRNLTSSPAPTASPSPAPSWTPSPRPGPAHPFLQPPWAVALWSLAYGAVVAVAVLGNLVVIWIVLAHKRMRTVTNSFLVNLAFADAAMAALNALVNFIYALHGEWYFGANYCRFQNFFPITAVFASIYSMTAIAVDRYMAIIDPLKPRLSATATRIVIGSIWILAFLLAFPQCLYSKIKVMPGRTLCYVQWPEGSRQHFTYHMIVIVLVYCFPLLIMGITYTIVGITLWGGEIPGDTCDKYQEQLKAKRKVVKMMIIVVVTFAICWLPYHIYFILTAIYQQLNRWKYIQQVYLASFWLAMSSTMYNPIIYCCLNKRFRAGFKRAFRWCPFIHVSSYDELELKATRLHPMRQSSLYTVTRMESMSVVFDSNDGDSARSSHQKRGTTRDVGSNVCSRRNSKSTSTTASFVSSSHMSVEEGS
Nature of the assay: Binding affinity towards Tachykinin receptor 3 in guinea pig cerebral cortex using [3H]senktide as radioligand; Inactive (>>10 uM). The assay is classed as tissue-based.

The target in assay [4] is T4, Substance-K receptor (Mesocricetus auratus, UniProt P51144).
T4 sequence (P51144 whole entry): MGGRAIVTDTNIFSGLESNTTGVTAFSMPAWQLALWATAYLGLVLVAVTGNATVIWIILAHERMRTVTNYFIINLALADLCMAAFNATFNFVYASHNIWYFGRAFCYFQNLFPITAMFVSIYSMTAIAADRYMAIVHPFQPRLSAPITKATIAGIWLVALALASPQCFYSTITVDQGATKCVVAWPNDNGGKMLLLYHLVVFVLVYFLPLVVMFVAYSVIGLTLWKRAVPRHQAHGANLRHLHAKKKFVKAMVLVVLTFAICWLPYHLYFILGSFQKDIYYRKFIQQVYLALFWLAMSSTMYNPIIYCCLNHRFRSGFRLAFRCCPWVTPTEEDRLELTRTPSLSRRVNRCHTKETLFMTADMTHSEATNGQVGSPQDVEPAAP
Briefly: Binding affinity towards Tachykinin receptor 2 in hamster urinary bladder using [125I]-Neurokinin A as radioligand; Inactive (>>10 uM). In kind it is tissue-based.

Assay [5] has as its target T5, Cholecystokinin receptor type A (Rattus norvegicus, UniProt P30551).
T5 sequence (P30551 whole entry): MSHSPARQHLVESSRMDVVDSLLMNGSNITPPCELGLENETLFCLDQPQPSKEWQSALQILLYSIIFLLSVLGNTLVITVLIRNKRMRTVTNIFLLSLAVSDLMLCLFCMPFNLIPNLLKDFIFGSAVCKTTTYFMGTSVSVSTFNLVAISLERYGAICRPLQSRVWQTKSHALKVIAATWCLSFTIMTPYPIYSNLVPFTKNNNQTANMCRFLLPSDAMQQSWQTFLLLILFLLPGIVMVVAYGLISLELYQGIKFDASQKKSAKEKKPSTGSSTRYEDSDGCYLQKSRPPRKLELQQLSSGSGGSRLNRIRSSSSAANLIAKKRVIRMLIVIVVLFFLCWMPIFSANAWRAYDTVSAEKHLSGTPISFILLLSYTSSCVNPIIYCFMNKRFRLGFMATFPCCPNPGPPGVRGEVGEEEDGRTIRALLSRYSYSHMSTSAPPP
Nature of the assay: Binding affinity towards CCK-A receptor in rat pancreas using [125I]Bolton-Hunter CCK-8 as radioligand; Value ranges from 3.3-5.4 uM. The assay is classed as tissue-based.

Assay [6] concerns the target T5, Cholecystokinin receptor type A. Nature of the assay: Binding affinity towards CCK-A receptor in rat pancreas using [125I]Bolton-Hunter CCK-8 as radioligand; Value ranges from 11-16 uM. The assay is classed as tissue-based.
Assay [7] addresses T2, Substance-P receptor. Briefly: Binding affinity towards NK-1 receptor in guinea pig cerebral cortex using [125I]-Bolton-Hunter substance P as radioligand; Value ranges from 7.3-8.8 uM. In kind it is tissue-based.
Assay [8] deals with T1, Gastrin/cholecystokinin type B receptor. Briefly: Binding affinity towards CCK-B receptor in mouse cerebral cortex using [125I]Bolton-Hunter CCK-8 as radioligand; Inactive (>>10 uM). In kind it is tissue-based.
Assay [9] deals with T3, Neuromedin-K receptor. Nature of the assay: Binding affinity towards Tachykinin receptor 3 in guinea pig cerebral cortex using [3H]senktide as radioligand; Value ranges from 8.2-9.4 uM. The assay is classed as tissue-based.
Assay [10] concerns the target T5, Cholecystokinin receptor type A. Briefly: Binding affinity towards CCK-A receptor in rat pancreas using [125I]Bolton-Hunter CCK-8 as radioligand; Value ranges from 4.1-6.4 uM. The assay is classed as tissue-based.
Assay [11] shares this target. Nature of the assay: Binding affinity towards CCK-A receptor in rat pancreas using [125I]Bolton-Hunter CCK-8 as radioligand; Value ranges from 4.7-7.1 uM. In kind it is tissue-based.
The target of assay [12] is T1, Gastrin/cholecystokinin type B receptor. Briefly: Binding affinity towards CCK-B receptor in mouse cerebral cortex using [125I]Bolton-Hunter CCK-8 as radioligand; Value ranges from 7.8-9.3 uM. In kind it is tissue-based.
Assay [13] deals with T4, Substance-K receptor. Nature of the assay: Binding affinity towards Tachykinin receptor 2 in hamster urinary bladder using [125I]neurokinin A as radioligand; Value ranges from 2.6-11 uM.
For assay [14], the target named is T5, Cholecystokinin receptor type A. Briefly: Binding affinity towards CCK-A receptor in rat pancreas using [125I]Bolton-Hunter CCK-8 as radioligand; Value ranges from 3.5-4.6 uM. The assay is classed as tissue-based.
The target is the same in assay [15]. Nature of the assay: Binding affinity towards CCK-A receptor in rat pancreas using [125I]Bolton-Hunter CCK-8 as radioligand; Value ranges from 12-20 uM. The assay is classed as tissue-based.
The target of assay [16] is T3, Neuromedin-K receptor. Nature of the assay: Binding affinity towards Tachykinin receptor 3 in guinea pig cerebral cortex using [3H]senktide as radioligand; Value ranges from 5.8-14u M. The assay is classed as tissue-based.
The target of assay [17] is T4, Substance-K receptor. Nature of the assay: Binding affinity towards Tachykinin receptor 2 in hamster urinary bladder using [125I]neurokinin A as radioligand; Value ranges from 4.6-9.0 uM.

T2 sequence (P30547 whole entry): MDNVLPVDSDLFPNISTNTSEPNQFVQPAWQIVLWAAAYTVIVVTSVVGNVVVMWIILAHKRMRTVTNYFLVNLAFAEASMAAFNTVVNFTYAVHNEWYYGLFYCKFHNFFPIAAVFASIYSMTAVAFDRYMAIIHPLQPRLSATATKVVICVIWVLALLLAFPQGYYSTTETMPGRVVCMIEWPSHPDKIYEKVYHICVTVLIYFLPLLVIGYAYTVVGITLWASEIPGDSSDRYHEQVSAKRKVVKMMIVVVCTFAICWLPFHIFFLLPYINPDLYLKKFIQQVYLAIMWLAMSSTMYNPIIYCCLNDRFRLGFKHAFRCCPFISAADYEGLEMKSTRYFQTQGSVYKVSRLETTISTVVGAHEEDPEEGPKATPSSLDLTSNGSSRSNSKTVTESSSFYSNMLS

What is called IC50 is the point on the concentration scale where inhibition reaches its midpoint. Read a low IC50 as greater potency. For `O=C1[C@H](Cc2c[nH]c3ccccc23)CN(Cc2ccccc2)C[C@@H]1Cc1c[nH]c2ccccc12`, the IC50 in assay [1] is 15 µM; in [2], “Not Active”; in [3] it was “Not Active”; in [4] it was “Not Active”; in assay [5], 4.1 µM.
For the molecule `O=C1CCN(C(=O)OCc2ccccc2)CC1Cc1ccccc1` (stereo unspecified), the IC50 in [6] was 13 µM; in [3], “Not Active”; in assay [4] it was “Not Active”; in [7], 8.1 µM; in assay [8], “Not Active”.
`OC1CCN(Cc2ccccc2)C[C@@H]1Cc1c[nH]c2ccccc12` (stereo partly specified): the IC50 in assay [9] was 8.8 µM; in assay [2], “Not Active”; in [4] it was “Not Active”.
As to `CC(C)(C)OC(=O)n1cc(CC2CN(Cc3ccccc3)CCC2O)c2ccccc21` (stereo unspecified), the IC50 is 5.2 µM in assay [10]; “Not Active” in [2]; “Not Active” in assay [3]; “Not Active” in assay [4]; “Not Active” in [8].
Take `CCOP(=O)(OCC)OC1=CCN(Cc2ccccc2)CC1Cc1cn(C(=O)OC(C)(C)C)c2ccccc12` (stereo unspecified): the half-maximal inhibitory concentration (IC50) in assay [11] was 5.5 µM; in [2], “Not Active”; in assay [12], 8.5 µM; in assay [3], “Not Active”; in [4] it was “Not Active”.
On to `O=C1CCN(C(=O)CCc2c[nH]c3ccccc23)CC1Cc1ccccc1` (stereo unspecified), for which the IC50 result is “Not Active” in assay [2], “Not Active” in assay [3] and 6.9 µM in [13].
Consider `O=C1C(Cc2c[nH]c3ccccc23)CN(Cc2ccccc2)C[C@@H]1Cc1c[nH]c2ccccc12` (stereo partly specified), for which the IC50 result in [2] is “Not Active”; in assay [14] it was 4 µM; in [3] it was “Not Active”; in [4], “Not Active”; in assay [8], “Not Active”.
In the case of `O=C1CCN(Cc2ccccc2)CC1Cc1c[nH]c2ccccc12` (stereo unspecified), the IC50 in assay [15] is 16 µM; in [2], “Not Active”; in assay [16], 10 µM; in assay [8], “Not Active”; in [17], 6.8 µM.

The values above are taken from ChEMBL document CHEMBL1127244, “Alternative strategies towards the identification of chemical lead compounds by rational design” (Bioorg Med Chem Lett, 1994).
